In US20110039874A1, “MONOACYLGLYCEROL LIPASE INHIBITORS FOR MODULATION OF CANNABINOID ACTIVITY” (Northeastern University, priority 2007, published 2011):

| Compound | melting point [°C] |
| --- | --- |
| O=S(=O)(F)CCCCCCCc1ccc(OCc2ccccc2)cc1 [Compound 13.1, 7-(4-Benzyloxy-phenyl)-heptanesulfonyl fluoride] | 35 to 38 |
| O=S(=O)(F)CCCCCc1ccc(OCc2ccccc2)cc1 [Compound 13.4, 5-(4-Benzyloxy-phenyl)-pentanesulfonyl fluoride] | 66 to 68 |
| O=S(=O)(F)CCCCCCCc1ccc(O)cc1 [Compound 14.1, 7-(4-Hydroxy-phenyl)-heptanesulfonyl fluoride] | 47 to 51 |
| O=S(=O)(F)CCCCOc1ccccc1 [Compound 17, 4-Phenoxybutylsulfonyl fluoride] | 74 to 76 |
| COS(=O)(=O)CCCCCCCc1ccc(OCc2ccccc2)cc1 [Compound 18, 7-(4-Benzyloxy-phenyl)-heptane-1-sulfonic acid methyl ester] | 57 to 59 |
| O=C(CCCOc1ccc(OCc2ccccc2)cc1)C(F)(F)F [Compound 23.1, 1,1,1-Trifluoro-5-[4-(benzyloxy)phenoxy]-2-pentanone] | 59 to 61 |
| O=C(CCCCOc1ccc(OCc2ccccc2)cc1)C(F)(F)F [Compound 23.2, 1,1,1-Trifluoro-6-[4-(Benzyloxy)phenoxy]-2-hexanone] | 95.5 to 96 |
| O=C(CCCCCOc1ccc(OCc2ccccc2)cc1)C(F)(F)F [Compound 23.3, 1,1,1-Trifluoro-7-[4-(Benzyloxy)phenoxy]-2-heptanone] | 59 to 60 |
| O=C(CCCCCCOc1ccc(OCc2ccccc2)cc1)C(F)(F)F [Compound 23.4, 1,1,1-Trifluoro-8-[4-(Benzyloxy)phenoxy]-2-octanone] | 82 to 83 |
| O=C(CCCOc1ccccc1OCc1ccccc1)C(F)(F)F [Compound 23.8, 1,1,1-Trifluoro-5-[2-(Benzyloxy)phenoxy]-2-pentanone] | 50 to 51 |
| O=C(CCCCCOc1ccccc1OCc1ccccc1)C(F)(F)F [Compound 23.10, 1,1,1-Trifluoro-7-[2-(Benzyloxy)phenoxy]-2-heptanone] | 31 to 32 |
| O=C(CCCCOc1ccccc1)C(F)(F)F [Compound 23.12, 1,1,1-Trifluoro-6-phenoxy-2-hexanone] | 50 to 51 |
| Cc1nnc(C(=O)CCCCCCOc2ccc(O)cc2)o1 [Compound 66, 7-(4-Hydroxy-phenoxy)-1-(5-methyl-1,3,4-oxadiazol-2-yl)-heptan-1-one] | 134 to 135 |

The next lines start with the values.

| melting point [°C] | Compound |
| --- | --- |
| 76 to 77 | Oc1cccc(OCCCC(O)(O)C(F)(F)F)c1 (hydrate or solvate) [Compound 24.5, 1,1,1-Trifluoro-2,2-dihydroxy-5-[3-(hydroxy)phenoxy]pentane] |
| 63 to 64 | O=C(CCCCOc1ccc(O)cc1)C(F)(F)F [Compound 24.2, 1,1,1-Trifluoro-6-[4-(hydroxy)phenoxy]-2-hexanone] |
| 61 to 62 | O=C(CCCCCCOc1ccc(O)cc1)C(F)(F)F [Compound 24.4, 1,1,1-Trifluoro-8-[4-(hydroxy)phenoxy]-2-octanone] |
| 51 to 52 | O=C(CCCCOc1ccccc1O)C(F)(F)F [Compound 24.9, 1,1,1-Trifluoro-6-[2-(hydroxy)phenoxy]-2-hexanone] |
| 118 to 120 | Cc1nnc(C(=O)CCCCCCOc2ccc(OCc3ccccc3)cc2)o1 [Compound 65.2, 7-(4-Benzyloxy-phenoxy)-1-(5-methyl-1,3,4-oxadiazol-2-yl)-heptan-1-one] |
